Test results published in patent US12233161B1, “Lipids and lipid nanoparticle formulations” (LONGUIDE BIOPHARMA CORPORATION, priority 2024, dated 2025).

Experiments:
[1] = system: mice; test: In vivo delivery of FLuc-mRNA lipid nanoparticles in mice, in vivo imaging (IVIS)
Method in brief: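 Mice (n=3) received about 75 μL FLuc-mRNA LNP per mouse intramuscularly (rectus femoris), intravenously (tail vein), intraperitoneally or subcutaneously (back). After injection, D-luciferin (200 μL, 15 mg/mL) was given i.p. 10-15 min before IVIS imaging.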

[2] = Particle size and PDI of nucleic acid lipid nanoparticle preparations by dynamic light scattering; assay type: physicochemical; settings: DMG-PEG2000:DSPC:Chol:compound 1.40:11.15:38.95:48.50, N/P 20
Description: The 7.5 μL nucleic acid lipid nanoparticle solution (containing approximately 0.04 mg/mL mRNA) was taken and added with 200 μL ultrapure water, mixed by gentle blowing using a pipette tip, and the particle size of the nanopreparation was detected by dynamic lightscattering (DLS) using a Malvern Dynamic Light Scattering Instrument (Malvern Instruments Ltd., ZEN3700, UK).
27.5 μL nucleic acid lipid nanoparticle solution (containing about 0.04 mg/mL mRNA) was taken and added with 200 μL ultrapure water. A pipette tip was used to gently blow the sample and mix well. The particle size of the nanopreparation was detected by Malvern Dynamic Light Scattering Instrument (Malvern Instruments Ltd., ZEN3700, UK). After the detection, the sample was recovered to an EP tube, and 600 μL of ultrapure water was added, gently blown with a pipette tip, and the potential of the nanopreparation was measured by a Malvern particle size meter.

[3] = Fluc-mRNA LNP, route IM, 1 h (live), DSPE-PEG5000:DSPC:Chol:compound 1.40:11.15:38.95:48.50, N/P 30
[4] = Fluc-mRNA LNP, route IM, 1 h (lung), DSPE-PEG5000:DSPC:Chol:compound 1.40:11.15:38.95:48.50, N/P 30
[5] = Fluc-mRNA LNP, route IM, 1 h (spleen), DSPE-PEG5000:DSPC:Chol:compound 1.40:11.15:38.95:48.50, N/P 30
[6] = Fluc-mRNA LNP, route IM, 2 h (live), DSPE-PEG5000:DSPC:Chol:compound 1.40:11.15:38.95:48.50, N/P 30
[7] = Fluc-mRNA LNP, route IM, 2 h (lung), DSPE-PEG5000:DSPC:Chol:compound 1.40:11.15:38.95:48.50, N/P 30
[8] = Fluc-mRNA LNP, route IM, 2 h (spleen), DSPE-PEG5000:DSPC:Chol:compound 1.40:11.15:38.95:48.50, N/P 30
[9] = Fluc-mRNA LNP, route IM, 3 h (live), DSPE-PEG5000:DSPC:Chol:compound 1.40:11.15:38.95:48.50, N/P 30
[10] = Fluc-mRNA LNP, route IM, 3 h (lung), DSPE-PEG5000:DSPC:Chol:compound 1.40:11.15:38.95:48.50, N/P 30
[11] = Fluc-mRNA LNP, route IM, 3 h (spleen), DSPE-PEG5000:DSPC:Chol:compound 1.40:11.15:38.95:48.50, N/P 30
[12] = Fluc-mRNA LNP, route IM, 6 h (live), DSPE-PEG5000:DSPC:Chol:compound 1.40:11.15:38.95:48.50, N/P 30
[13] = Fluc-mRNA LNP, route IM, 6 h (lung), DSPE-PEG5000:DSPC:Chol:compound 1.40:11.15:38.95:48.50, N/P 30
[14] = Fluc-mRNA LNP, route IM, 6 h (spleen), DSPE-PEG5000:DSPC:Chol:compound 1.40:11.15:38.95:48.50, N/P 30
[15] = Fluc-mRNA LNP, route IM, organ not given, formulation, molar ratio and N/P as in the table
[16] = Fluc-mRNA LNP, route IV, organ: body, formulation, molar ratio and N/P as in the table
[17] = Fluc-mRNA LNP, route IV, organ: liver, formulation, molar ratio and N/P as in the table
[18] = Fluc-mRNA LNP, route IV, organ: lung, formulation, molar ratio and N/P as in the table
[19] = Fluc-mRNA LNP, route IV, organ: spleen, formulation, molar ratio and N/P as in the table

Compound: CCCCCCCCCCCCOC(=O)C(O)CN(CCOCCN(CC(O)C(=O)OCCCCCCCCCCCC)CC(O)C(=O)OCCCCCCCCCCCC)CC(O)C(=O)OCCCCCCCCCCCC (stereo not drawn) [Compound L0312]
- IVIS ([1]; IM, DMG-PEG2000:DSPC:Chol:compound 1.40:11.15:38.95:48.50, N/P 20, Fluc-mRNA): 9.71E+05
- IVIS ([1]; IV, organ not given, DMG-PEG2000:DSPC:Chol:compound 1.40:11.15:38.95:48.50, N/P 20, Fluc-mRNA): 5.52E+05
- PDI [2]: 0.12
- Particle size (nm) [2]: 172.73 nm

Compound: CCCCCCC(CCCCCC)C(=O)NCCOC(=O)C(O)CN(CCCN(C)CCCN(CC(O)C(=O)OCCNC(=O)C(CCCCCC)CCCCCC)CC(O)C(=O)OCCNC(=O)C(CCCCCC)CCCCCC)CC(O)C(=O)OCCNC(=O)C(CCCCCC)CCCCCC (stereo not drawn) [Compound L0361]
- IVIS ([1]; Fluc-mRNA LNP, route IH, organ: body, DSPE-PEG5000:DSPC:Chol:compound 1.40:11.15:38.95:48.50, N/P 30): 1.54E+08
- IVIS ([1]; Fluc-mRNA LNP, route IH, organ: spleen, DSPE-PEG5000:DSPC:Chol:compound 1.40:11.15:38.95:48.50, N/P 30): 3.59E+04
- % of organ targeting [1, 3]: 63.15%
- IVIS [1, 3]: 6.62E+05
- % of organ targeting [1, 4]: 4.17%
- IVIS [1, 4]: 4.37E+04
- IVIS ([1]; Fluc-mRNA LNP, route IM, 1 h (muscle), DSPE-PEG5000:DSPC:Chol:compound 1.40:11.15:38.95:48.50, N/P 30): 1.07E+08
- % of organ targeting [1, 5]: 31.03%
- IVIS [1, 5]: 3.25E+05
- % of organ targeting [1, 6]: 58.75%
- IVIS [1, 6]: 7.54E+06
- % of organ targeting [1, 7]: 1.27%
- IVIS [1, 7]: 1.63E+05
- IVIS ([1]; Fluc-mRNA LNP, route IM, 2 h (muscle), DSPE-PEG5000:DSPC:Chol:compound 1.40:11.15:38.95:48.50, N/P 30): 1.87E+08
- % of organ targeting [1, 8]: 37.18%
- IVIS [1, 8]: 4.77E+06
- % of organ targeting [1, 9]: 42.49%
- IVIS [1, 9]: 4.54E+06
- % of organ targeting [1, 10]: 4.98%
- IVIS [1, 10]: 5.32E+05
- IVIS ([1]; Fluc-mRNA LNP, route IM, 3 h (muscle), DSPE-PEG5000:DSPC:Chol:compound 1.40:11.15:38.95:48.50, N/P 30): 2.97E+08
- % of organ targeting [1, 11]: 50.95%
- IVIS [1, 11]: 5.45E+06
- % of organ targeting [1, 12]: 52.52%
- IVIS [1, 12]: 1.17E+07
- % of organ targeting [1, 13]: 2.72%
- IVIS [1, 13]: 6.06E+05
- IVIS ([1]; Fluc-mRNA LNP, route IM, 6 h (muscle), DSPE-PEG5000:DSPC:Chol:compound 1.40:11.15:38.95:48.50, N/P 30): 2.62E+08
- % of organ targeting [1, 14]: 42.27%
- IVIS [1, 14]: 9.42E+06
- IVIS [1, 15]: 1.14E+08
- IVIS [1, 16]: 4.99E+07
- IVIS [1, 17]: 1.24E+07
- IVIS [1, 18]: 1.36E+07
- IVIS [1, 19]: 5.05E+07

Compound: CCCCCCCCCCCCCCN(C)C(=O)C(O)CN(CCCN(CC(O)C(=O)N(C)CCCCCCCCCCCCCC)CC(O)C(=O)N(C)CCCCCCCCCCCCCC)CCCN(CC(O)C(=O)N(C)CCCCCCCCCCCCCC)CC(O)C(=O)N(C)CCCCCCCCCCCCCC (stereo not drawn) [Compound L0357]
- IVIS [1, 15]: 3.97E+06
- IVIS [1, 16]: 2.87E+07
- % of organ targeting [1, 17]: 55.56%
- IVIS [1, 17]: 6.55E+06
- % of organ targeting [1, 18]: 1.75%
- IVIS [1, 18]: 2.06E+05
- % of organ targeting [1, 19]: 42.69%
- IVIS [1, 19]: 5.03E+06

Compound: CCCCCCCCC(CCCCCC)C(=O)OCCCCCCNC(=O)C(O)CN(CCN(C)CCN(CC(O)C(=O)NCCCCCCOC(=O)C(CCCCCC)CCCCCCCC)CC(O)C(=O)NCCCCCCOC(=O)C(CCCCCC)CCCCCCCC)CC(O)C(=O)NCCCCCCOC(=O)C(CCCCCC)CCCCCCCC (stereo not drawn) [Compound L0371]
- IVIS [1, 15]: 3.02E+07
- IVIS [1, 16]: 1.98E+07
- % of organ targeting [1, 17]: 8.16%
- IVIS [1, 17]: 2.58E+06
- % of organ targeting [1, 18]: 8.29%
- IVIS [1, 18]: 2.62E+06
- % of organ targeting [1, 19]: 83.54%
- IVIS [1, 19]: 2.64E+07

Compound: CCCCCCCCN(C)C(=O)C(O)CN(C)CCN(C)CCN(C)CC(O)C(=O)N(C)CCCCCCCC (stereo not drawn) [Compound L0351]
- IVIS [1, 15]: 1.19E+06
- IVIS ([1]; Fluc-mRNA LNP, route IV, organ not given, formulation, molar ratio and N/P as in the table): 1.55E+06
